The values below come from patent publication US8742110B2, “Spiroxazolidinone compounds” (Merck Sharp & Dohme Corp., priority 2010, dated 2014).

Where a name gives a salt, the structure may show the parent alone.

The target in this test is SSTR5 (Homo sapiens (Human), UniProt P35346). As to the kind of experiment: SSTR5 binding assay. To be noted: CHO-K1 membranes expressing cloned human SSTR5. A digest of the protocol: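 Competition binding on membranes from CHO-K1 cells stably expressing cloned human receptor, using radiolabeled somatostatin in 50 mM Tris-HCl pH 7.8 with EGTA, MgCl2 and protease inhibitors. Unlabeled compounds tested from 0.01 nM to 10,000 nM.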
Chain of SSTR5 (P35346 whole entry): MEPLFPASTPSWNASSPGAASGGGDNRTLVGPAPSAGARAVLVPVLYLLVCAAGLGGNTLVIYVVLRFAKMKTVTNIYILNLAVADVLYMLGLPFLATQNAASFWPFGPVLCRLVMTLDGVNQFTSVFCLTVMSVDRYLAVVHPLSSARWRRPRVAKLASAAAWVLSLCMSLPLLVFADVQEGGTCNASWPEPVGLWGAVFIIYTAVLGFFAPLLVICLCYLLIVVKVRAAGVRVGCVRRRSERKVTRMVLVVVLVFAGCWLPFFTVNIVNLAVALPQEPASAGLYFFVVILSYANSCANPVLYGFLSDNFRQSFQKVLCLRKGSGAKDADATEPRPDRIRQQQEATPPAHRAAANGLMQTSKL
As for `O=C(O)c1ccc(N2CC3(CCN(Cc4cn(C5CCCCC5)nc4-c4cccc(C(F)(F)F)c4)CC3)OC2=O)cc1` [Example 1-5, 4-[8-({1-Cyclohexyl-3-[3-(trifluoromethyl)phenyl]-1H-pyrazol-4-yl}methyl)-2-oxo-1-oxa-3,8-diazaspiro[4.5]dec-3-yl]benzoic acid, TFA salt], the IC50 (commonly the concentration needed to halve the response being measured) came to 1.53 nM.

`CCOc1cc(CN2CCC3(CC2)CN(c2ccc(C(=O)O)cn2)C(=O)O3)cc(OCC)c1-c1ccc(F)cc1` [Example 3-11, 6-{8-[(2,6-Diethoxy-4′-fluorobiphenyl-4-yl)methyl]-2-oxo-1-oxa-3,8-diazaspiro[4.5]dec-3-yl}pyridine-3-carboxylic acid, TFA salt]: the IC50 was determined as 0.941 nM.

The compound `CCOc1cc(CN2CCC3(CC2)CN(c2ccc(-c4nn[nH]n4)cc2OC)C(=O)O3)cc(OCC)c1-c1ccc(F)cc1` [Example 3-7, 8-[(2,6-Diethoxy-4′-fluorobiphenyl-4-yl)methyl]-3-[2-methoxy-4-(2H-tetrazol-5-yl)phenyl]-1-oxa-3,8-diazaspiro[4.5]decan-2-one, TFA salt] yielded an IC50 of 7.06 nM.

Compound `Cc1ccc(-c2cc(C)c(Cl)cc2CN2CCC3(CC2)CN(c2ccc(C(=O)O)cc2)C(=O)O3)cn1` [Example 4-23, 4-{8-[5-Chloro-4-methyl-2-(6-methylpyridin-3-yl)benzyl]-2-oxo-1-oxa-3,8-diazaspiro[4.5]dec-3-yl}benzoic acid, TFA salt] registered an IC50 of 2.3 nM.

`O=C(O)c1ccc(N2CC3(CCN(Cc4cn(-c5cccc6c5OCCO6)nc4-c4ccc(F)c(F)c4F)CC3)OC2=O)cc1` [Example 1-21, 4-(8-{[1-(2,3-Dihydro-1,4-benzodioxin-5-yl)-3-(2,3,4-trifluorophenyl)-1H-pyrazol-4-yl]methyl}-2-oxo-1-oxa-3,8-diazaspiro[4.5]dec-3-yl)benzoic acid, TFA salt] registered an IC50 of 3.21 nM. The IC50 values of the last two compounds are within 1.5-fold of each other.

On to `O=C(O)c1ccc(N2CC3(CCN(Cc4nc5ccccn5c4-c4cc(F)c(F)cc4F)CC3)OC2=O)cc1` [Example 6-36, 4-(2-Oxo-8-{[3-(2,4,5-trifluorophenyl)imidazo[1,2-a]pyridin-2-yl]methyl}-1-oxa-3,8-diazaspiro[4.5]dec-3-yl)benzoic acid, TFA salt], for which the IC50 is 1200 nM.

`CC(C)(C)n1cc(CN2CCC3(CC2)CN(c2ccc(C(=O)O)cc2)C(=O)O3)c(-c2ccc(F)cc2F)n1` [Example 1-30, 4-(8-{[1-tert-Butyl-3-(2,4-difluorophenyl)-1H-pyrazol-4-yl]methyl}-2-oxo-1-oxa-3,8-diazaspiro[4.5]dec-3-yl)benzoic acid, TFA salt] registered an IC50 of 1.95 nM.

The compound `COc1ccc(-c2nn(-c3ccccc3)cc2CN2CCCC3(CC2)CN(c2ccc(C(=O)O)cc2)C(=O)O3)cc1` (stereo not shown) [Example 2-15, 4-(8-{[3-(4-Methoxyphenyl)-1-phenyl-1H-pyrazol-4-yl]methyl}-2-oxo-1-oxa-3,8-diazaspiro[4.6]undec-3-yl)benzoic acid, TFA salt] yielded an IC50 of 58.7 nM.

As to `CCOc1cc(CN2CCC3(C2)CN(c2ccc(C(=O)O)cc2)C(=O)O3)cc(OCC)c1-c1ccc(F)cc1` (stereo not shown) [Example 2-16, 4-{7-[(2,6-Diethoxy-4′-fluorobiphenyl-4-yl)methyl]-2-oxo-1-oxa-3,7-diazaspiro[4.4]non-3-yl}benzoic acid, TFA salt], the IC50 came to 5.63 nM.

Compound `O=C(O)c1ccc(N2CC3(CCN(Cc4cc(C(F)(F)F)ccc4-c4ccc(F)c(F)c4F)CC3)OC2=O)cc1` [Example 4-9, 4-(2-Oxo-8-{[2′,3′,4′-trifluoro-4-(trifluoromethyl)biphenyl-2-yl]methyl}-1-oxa-3,8-diazaspiro[4.5]dec-3-yl)benzoic acid, TFA salt] yielded an IC50 of 0.439 nM.

`CCOc1cc(CN2CCC3(CC2)CN(c2ccc(O)nc2)C(=O)O3)cc(OCC)c1-c1ccc(F)cc1` [Example 3-13, 8-[(2,6-Diethoxy-4-fluorobiphenyl-4-yl)methyl]-3-(6-hydroxypyridin-3-yl)-1-oxa-3,8-diazaspiro[4.5]decan-2-one, TFA salt] showed an IC50 of 3.8 nM. Against the preceding compound, the IC50 is about 8.7-fold higher.

Turning to `CCCn1cc(CN2CCC3(CC2)CN(c2ccc(C(=O)O)cc2)C(=O)O3)c2ccc(OC)cc21` [Example 6-20, 4-{8-[(6-Methoxy-1-propyl-1H-indol-3-yl)methyl]-2-oxo-1-oxa-3,8-diazaspiro[4.5]dec-3-yl}benzoic acid, TFA salt], the 50% inhibitory concentration (IC50) was 1.06 nM.

Compound `CCOc1cc(CN2CCC3(CC2)CN(c2ccc(C(=O)O)cc2)C(=O)O3)cc2c(OC)ccc(Cl)c12` [Example 5-7, 4-{8-[(5-Chloro-4-ethoxy-8-methoxynaphthalen-2-yl)methyl]-2-oxo-1-oxa-3,8-diazaspiro[4.5]dec-3-yl}benzoic acid, TFA salt] gave an IC50 of 0.233 nM.

The compound `COc1ccc2c(CN3CCC4(CC3)CN(c3ccc(C(=O)O)cc3)C(=O)O4)cn(C(C)C)c2c1` [Example 6-16, 4-(8-{[6-Methoxy-1-(propan-2-yl)-1H-indol-3-yl]methyl}-2-oxo-1-oxa-3,8-diazaspiro[4.5]dec-3-yl)benzoic acid, TFA salt] returned an IC50 of 0.851 nM.

`COc1ccc2c(CN3CCC4(CC3)CN(c3ccc(C(=O)O)cc3)C(=O)O4)nn(C(C)C)c2c1` [Example 6-6, 4-(8-{[6-Methoxy-1-(propan-2-yl)-1H-indazol-3-yl]methyl}-2-oxo-1-oxa-3,8-diazaspiro[4.5]dec-3-yl)benzoic acid, TFA salt]: the IC50 amounted to 68.1 nM.

`O=C(O)c1ccc(N2CC3(CCN(Cc4sc(-c5ccccc5)nc4-c4ccccc4)CC3)OC2=O)cc1` [Example 6-32, 4-{8-[(2,4-Diphenyl-1,3-thiazol-5-yl)methyl]-2-oxo-1-oxa-3,8-diazaspiro[4.5]dec-3-yl}benzoic acid, TFA salt] showed an IC50 of 69.1 nM.

In turn, `CCCn1nc(CN2CCC3(CC2)CN(c2ccc(C(=O)O)cc2)C(=O)O3)c2ccc(C#N)cc21` [Example 6-7, 4-{8-[(6-Cyano-1-propyl-1H-indazol-3-yl)methyl]-2-oxo-1-oxa-3,8-diazaspiro[4.5]dec-3-yl}benzoic acid, TFA salt] came in with an IC50 of 1200 nM. This IC50 lies about 17-fold higher than the previous one.

The compound `CC1(C)CCc2cc(CN3CCC4(CC3)CN(c3ccc(C(=O)O)cc3)C(=O)O4)ccc2O1` [Example 5-12, 4-{2-Oxo-8-[(2,2-dimethyl-3,4-dihydro-2H-chromen-6-yl)methyl]-1-oxa-3,8-diazaspiro[4.5]dec-3-yl}benzoic acid, TFA salt] showed an IC50 of 29.4 nM.

In turn, `CC(C)n1cc(CN2CCC3(CC2)CN(c2ccc(C(=O)O)cc2)C(=O)O3)c2cc(-c3ccc(F)c(F)c3F)ccc21` [Example 6-24, TFA salt] had an IC50 of 0.342 nM.

For `CCOc1cc(CN2CCC3(CC2)CN(c2ccc(C(=O)O)cc2)C(=O)O3)c(-c2ccc(C(F)(F)F)nc2)cc1C` [Example 4-20, 4-(8-{5-Ethoxy-4-methyl-2-[6-(trifluoromethyl)pyridin-3-yl]benzyl}-2-oxo-1-oxa-3,8-diazaspiro[4.5]dec-3-yl)benzoic acid, TFA salt], the IC50 amounted to 0.632 nM.

`Cc1cc(C(=O)O)ccc1N1CC2(CCN(Cc3cn(C(C)(C)C)nc3-c3ccc(F)c(F)c3F)CC2)OC1=O` [Example 1-37, 4-(8-{[1-tert-Butyl-3-(2,3,4-trifluorophenyl)-1H-pyrazol-4-yl]methyl}-2-oxo-1-oxa-3,8-diazaspiro[4.5]dec-3-yl)-3-methylbenzoic acid, TFA salt] yielded a concentration for half-maximal inhibition (IC50) of 1.59 nM.

For the compound `COc1ccc(-c2nn(C(C)(C)C)cc2CN2CCCC3(CC2)CN(c2ccc(C(=O)O)cc2)C(=O)O3)cc1` (stereo not shown) [Example 2-14, 4-(8-{[1-tert-Butyl-3-(4-methoxyphenyl)-1H-pyrazol-4-yl]methyl}-2-oxo-1-oxa-3,8-diazaspiro[4.6]undec-3-yl)benzoic acid, TFA salt], the IC50 stood at 26.8 nM. This IC50 is about 17-fold higher than that of the compound before.

In turn, `COc1ccc(-c2nn(C(C)(C)C)cc2CN2CCC3(CC2)CN(c2ccc(C(=O)O)cc2)C(=O)O3)cc1` [Example 1-10, 4-(8-{[1-tert-Butyl-3-(4-methoxyphenyl)-1H-pyrazol-4-yl]methyl}-2-oxo-1-oxa-3,8-diazaspiro[4.5]dec-3-yl)benzoic acid, TFA salt] had an IC50 of 2.86 nM.

Turning to `O=C(O)c1ccc(N2CC3(CCN(Cc4cc(OC(F)(F)F)ccc4-c4ccc(F)c(F)c4F)CC3)OC2=O)cc1` [Example 4-17, 4-(2-Oxo-8-{[2′,3′,4′-trifluoro-4-(trifluoromethoxy)biphenyl-2-yl]methyl}-1-oxa-3,8-diazaspiro[4.5]dec-3-yl)benzoic acid, TFA salt], the IC50 came out at 0.165 nM.

Turning to `CCCn1cc(-c2ccc(F)c(F)c2F)c(CN2CCC3(CC2)CN(c2ccc(C(=O)O)cc2)C(=O)O3)n1` [Example 2-6, 4-(2-Oxo-8-{[1-propyl-4-(2,3,4-trifluorophenyl)-1H-pyrazol-3-yl]methyl}-1-oxa-3,8-diazaspiro[4.5]dec-3-yl)benzoic acid, TFA salt], the IC50 came to 281 nM. Compared with the last compound, the IC50 is about 1700-fold higher.

`CC(C)(C)Cn1nc(CN2CCC3(CC2)CN(c2ccc(C(=O)O)cc2)C(=O)O3)c2cc(F)ccc21` [Example 6-10, 4-(8-{[1-(2,2-Dimethylpropyl)-5-fluoro-1H-indazol-3-yl]methyl}-2-oxo-1-oxa-3,8-diazaspiro[4.5]dec-3-yl)benzoic acid, TFA salt] registered an IC50 of 137 nM.

Compound `CC(C)(C)n1cc(CN2CCC3(CC2)CN(c2ccc(C(=O)O)c(Cl)c2)C(=O)O3)c(-c2cc(F)c(Cl)cc2F)n1` [Example 1-13, 4-(8-{[1-tert-Butyl-3-(4-chloro-2,5-difluorophenyl)-1H-pyrazol-4-yl]methyl}-2-oxo-1-oxa-3,8-diazaspiro[4.5]dec-3-yl)-2-chlorobenzoic acid, TFA salt] gave an IC50 of 4.09 nM.

`CC1(C)C2CCC(C2)C1n1cc(CN2CCC3(CC2)CN(c2ccc(C(=O)O)cc2)C(=O)O3)c(-c2ccc(F)c(F)c2F)n1` (stereo not shown) [Example 1-25, 4-(8-{[1-(3,3-Dimethylbicyclo[2.2.1]hept-2-yl)-3-(2,3,4-trifluorophenyl)-1H-pyrazol-4-yl]methyl}-2-oxo-1-oxa-3,8-diazaspiro[4.5]dec-3-yl)benzoic acid, TFA salt]: the IC50 stood at 0.74 nM.
